Columns and labels:
PI3Kα = PI3Kα (Homo sapiens (Human), UniProt P42336); experiment: Biochemical evaluation of activity of PI3Kα (Kinase-Glo luminescence kinase assay); conditions: 25 μM ATP, 50 μM PIP2, 1 h at room temperature
How it was run: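 Inhibition of PI3Kα was measured in vitro with a luciferase-based Kinase-Glo™ luminescence readout in white 384-well plates at room temperature. Compound diluted 25-fold in buffer (50 mM Hepes pH 7.5, 3 mM MgCl2, 100 mM NaCl, 1 mM EGTA, 0.03% CHAPS, 2 mM DTT) was mixed with enzyme, then PIP2/ATP substrate was added. Percent inhibition used enzyme-free and DMSO controls; IC50 was fitted with XLfit.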

[1] = system: human lung cancer cell NCI-H460; experiment: Tumor cell viability by MTT assay; format: cell-based; conditions: Homo sapiens, NCI-H460, 96 h
How it was run: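 NCI-H460 cells exposed to six to nine compound concentrations (DMSO below 0.2%, triplicate wells) for 96 hours at 37° C, 5% CO2. MTT added for 4 hours, formazan dissolved in DMSO and OD read at 570 nm against DMSO-treated controls.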

[2] = system: human lung cancer NCI-H460 subcutaneous xenografts; experiment: Xenograft efficacy in nude mice, NCI-H460; format: in vivo; conditions: for Growth inhibition: NCI-H460 xenograft, 16 days of dosing
Procedure: (§1) Human lung cancer NCI-H460 cells were collected under aseptic conditions, and the cell density was adjusted to 1×10^6 cells/mL with sterile saline, 0.2 mL of which was implanted into the back of the nude mice. When the tumor grew to a diameter of about 1 cm, it was removed under septic condition and cut into pieces of 1 mm×1 mm which was implanted into the back of the nude mice. When the tumor grew to 100-300 mm^3 after 6 days, the animals were randomly divided into groups and administration was started (marked as Day 1). The test compound was administered orally every day. Body weight was measured twice a week and the length and width of the tumor were measured with a vernier caliper. After 16 days of dosing, the nude mice were sacrificed by cervical dislocation and the tumor issues were exfoliated, weighed and photographed. Finally, the tumor inhibitory rate was calculated. The antitumor efficacy was evaluated by the tumor inhibitory rate. The results were shown in Table 3, Table 4, FIG. 1 and FIG. 2.
(§2) The tumor volume was calculated as follows: Tumor volume=(a×b^2)/2, where a and b represented the length and width of the tumor.
(§3) The percentage of tumor growth inhibition was calculated as follows: Tumor growth inhibition (%)=(1−T/C)×100, where T was the final volume of the tumor in the test compound group and C was the final volume of the tumor in the solvent control group.

[3] = system: human gastric cancer HGC-27 subcutaneous xenografts; experiment: Xenograft efficacy in nude mice, HGC-27; format: in vivo
Procedure: as §1, with “gastric” for “lung”, “HGC-27” for “NCI-H460”, “When the tumor grew to a diameter of about 1 cm, it was removed under septic condition and cut into pieces of 1 mm×1 mm which was implanted into the back of the nude mice.” left out, “0).” for “1).”, “20” for “16”, “rate.” for “rate. The results were shown in Table 3, Table 4, FIG. 1 and FIG. 2.”
as §2, §3
The percentage of tumor regression was calculated by 100×(final tumor volume-initial tumor volume)/initial tumor volume.

Chain of PI3Kα (P42336 whole entry): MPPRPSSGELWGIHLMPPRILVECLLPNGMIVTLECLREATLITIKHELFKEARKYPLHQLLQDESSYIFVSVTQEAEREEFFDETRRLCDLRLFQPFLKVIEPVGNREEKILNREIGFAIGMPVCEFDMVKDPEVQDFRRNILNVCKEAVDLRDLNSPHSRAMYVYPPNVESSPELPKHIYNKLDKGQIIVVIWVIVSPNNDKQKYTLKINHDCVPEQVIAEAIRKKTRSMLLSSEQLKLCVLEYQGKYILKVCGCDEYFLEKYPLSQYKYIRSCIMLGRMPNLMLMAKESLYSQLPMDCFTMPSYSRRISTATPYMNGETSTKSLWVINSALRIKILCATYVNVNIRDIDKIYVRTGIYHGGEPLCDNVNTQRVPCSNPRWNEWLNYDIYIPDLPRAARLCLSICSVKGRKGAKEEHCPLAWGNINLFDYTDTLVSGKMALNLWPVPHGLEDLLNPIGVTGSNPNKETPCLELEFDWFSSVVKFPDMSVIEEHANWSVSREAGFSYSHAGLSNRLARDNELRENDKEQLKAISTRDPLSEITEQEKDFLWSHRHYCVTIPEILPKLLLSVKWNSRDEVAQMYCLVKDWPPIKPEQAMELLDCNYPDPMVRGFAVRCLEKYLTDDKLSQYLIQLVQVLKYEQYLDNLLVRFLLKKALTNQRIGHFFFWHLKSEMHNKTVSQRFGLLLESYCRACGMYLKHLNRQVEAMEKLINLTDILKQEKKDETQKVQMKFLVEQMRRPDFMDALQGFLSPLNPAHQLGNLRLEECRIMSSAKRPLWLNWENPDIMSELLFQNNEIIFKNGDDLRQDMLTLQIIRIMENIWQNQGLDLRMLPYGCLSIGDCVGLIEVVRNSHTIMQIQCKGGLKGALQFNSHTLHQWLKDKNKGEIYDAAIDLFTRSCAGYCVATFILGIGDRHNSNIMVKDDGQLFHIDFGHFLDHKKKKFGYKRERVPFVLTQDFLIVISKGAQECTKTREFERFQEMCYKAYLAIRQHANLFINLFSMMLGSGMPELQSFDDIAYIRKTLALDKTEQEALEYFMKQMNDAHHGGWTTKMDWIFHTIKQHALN
Chain of PI3Kα (P27986 whole entry partner): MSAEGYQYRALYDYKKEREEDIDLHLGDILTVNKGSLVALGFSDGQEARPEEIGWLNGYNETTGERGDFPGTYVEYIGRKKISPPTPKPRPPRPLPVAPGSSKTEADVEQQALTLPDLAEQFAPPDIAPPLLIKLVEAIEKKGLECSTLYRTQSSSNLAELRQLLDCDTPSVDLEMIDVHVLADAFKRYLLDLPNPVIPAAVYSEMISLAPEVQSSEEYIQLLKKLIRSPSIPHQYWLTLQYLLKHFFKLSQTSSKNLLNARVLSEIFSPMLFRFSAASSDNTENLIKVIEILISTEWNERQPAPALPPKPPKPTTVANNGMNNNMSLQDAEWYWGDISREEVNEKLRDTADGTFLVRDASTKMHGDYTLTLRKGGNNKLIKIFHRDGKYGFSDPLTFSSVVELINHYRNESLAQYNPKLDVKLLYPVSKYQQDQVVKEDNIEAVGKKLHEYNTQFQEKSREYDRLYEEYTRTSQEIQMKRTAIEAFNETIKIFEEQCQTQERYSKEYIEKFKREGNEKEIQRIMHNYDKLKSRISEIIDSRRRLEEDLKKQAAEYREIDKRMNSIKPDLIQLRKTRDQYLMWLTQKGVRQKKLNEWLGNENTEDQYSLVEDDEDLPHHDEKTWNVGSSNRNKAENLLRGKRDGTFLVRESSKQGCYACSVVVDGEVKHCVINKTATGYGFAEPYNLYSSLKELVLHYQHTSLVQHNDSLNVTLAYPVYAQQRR

IC50 (PI3Kα) [nM]	IC50 [1] [nM]	SMILES	also measured
0.86	93	COc1ncc(-c2cc(O[C@@H]3CCOC3)c3nc(N)nc(C)c3c2)cc1NS(=O)(=O)c1ccc(F)cc1F [Example 9, (R)—N-(5-(2-amino-4-methyl-8-((tetrahydrofuran-3-yl)oxy)quinazolin-6-yl)-2-methoxypyridin-3-yl)-2,4-difluorobenzenesulfonamide]	inhibitory effect against growth of NCI-H460 subcutaneous xenografts (in words) [2]: significant inhibitory effects; Growth inhibition ([2]; 5 mg/kg/day orally): 39.2%; Growth inhibition ([2]; 10 mg/kg/day orally): 56.3%; Growth inhibition ([2]; 20 mg/kg/day orally): 77.0%
0.82		CNc1nc(C)c2cc(-c3cnc(OC)c(NS(=O)(=O)c4ccc(F)cc4F)c3)cc(O[C@@H]3CCOC3)c2n1 [Example 32, (R)—N-(2-methoxy-5-(4-methyl-2-(methylamino)-8-((tetrahydrofuran-3-yl)oxy)quinazolin-6-yl)pyridin-3-yl)-2,4-difluorobenzenesulfonamide]	inhibitory effect on growth of HGC-27 subcutaneous xenografts (in words) [3]: significant inhibitory effect; Growth inhibition ([3]; HGC-27 xenograft, 5 mg/kg/day orally, 20 days of dosing): 76.9%; Regression ([3]; HGC-27 xenograft, 10 mg/kg/day orally, 20 days of dosing): 70.5%
0.65	29	COc1ncc(-c2cc(OC3CCOCC3)c3ncnc(C)c3c2)cc1NS(=O)(=O)c1ccc(F)cc1F [Example 44, N-(2-methoxy-5-(4-methyl-8-((tetrahydro-2H-pyran-4-yl)oxy)quinazolin-6-yl)pyridin-3-yl)-2,4-difluorobenzenesulfonamide]	inhibitory effect against growth of NCI-H460 subcutaneous xenografts (in words) [2]: significant inhibitory effects; Growth inhibition ([2]; 1 mg/kg/day orally): 60.3%
1.3	240	COc1ncc(-c2cc(OCC3CCCO3)c3ncnc(C)c3c2)cc1NS(=O)(=O)c1ccc(F)cc1F (stereo not drawn) [Example 60, N-(2-methoxy-5-(4-methyl-8-((tetrahydrofuran-2-yl)methoxy)quinazolin-6-yl)pyridin-3-yl)-2,4-difluorobenzenesulfonamide]	
1	45	COc1ncc(-c2cc(OCC3CCOC3)c3ncnc(C)c3c2)cc1NS(=O)(=O)c1ccc(F)cc1F (stereo not drawn) [Example 61, N-(2-methoxy-5-(4-methyl-8-((tetrahydrofuran-3-yl)methoxy)quinazolin-6-yl)pyridin-3-yl)-2,4-difluorobenzenesulfonamide]	
2.5	260	COc1ncc(-c2cc(OC3CCN(C)CC3)c3ncnc(C)c3c2)cc1NS(=O)(=O)c1ccc(F)cc1F [Example 62, N-(2-methoxy-5-(4-methyl-8-((1-methylpiperidin-4-yl)oxy)quinazolin-6-yl)pyridin-3-yl)-2,4-difluoro-benzenesulfonamide]	
10	2100	COc1ncc(-c2cc(OCCN3CCCC3)c3ncnc(C)c3c2)cc1NS(=O)(=O)c1ccc(F)cc1F [Example 63, N-(2-methoxy-5-(4-methyl-8-(2-(pyrrolidin-1-yl)ethoxy)quinazolin-6-yl)pyridin-3-yl)-2,4-difluorobenzenesulfonamide]	
1.5	390	COc1ncc(-c2cc(OCCn3cccn3)c3ncnc(C)c3c2)cc1NS(=O)(=O)c1ccc(F)cc1F [Example 64, N-(5-(8-(2-(1H-pyrazol-1-yl)ethoxy)-4-methylquinazolin-6-yl)-2-methoxypyridin-3-yl)-2,4-difluorobenzenesulfonamide]	
1.7	230	COc1ncc(-c2cc(OCC3CCN(C)CC3)c3ncnc(C)c3c2)cc1NS(=O)(=O)c1ccc(F)cc1F [Example 66, N-(2-methoxy-5-(4-methyl-8-((1-methylpiperidin-4-yl)methoxy)quinazolin-6-yl)pyridin-3-yl)-2,4-difluoro-benzenesulfonamide]	
6.1	3500	COc1ncc(-c2cc(OCCN(C)C)c3ncnc(C)c3c2)cc1NS(=O)(=O)c1ccc(F)cc1F [Example 67, N-(5-(8-(2-(dimethylamino)ethoxy)-4-methylquinazolin-6-yl)-2-methoxypyridin-3-yl)-2,4-difluorobenzenesulfonamide]	
1.6	340	COc1ncc(-c2cc(OCC3CC3)c3ncnc(C)c3c2)cc1NS(=O)(=O)c1ccc(F)cc1F [Example 68, N-(5-(8-(cyclopropylmethoxy)-4-methylquinazolin-6-yl)-2-methoxypyridin-3-yl)-2,4-difluorobenzenesulfonamide]	
2.2	50	COc1ncc(-c2cc(OC(C)C)c3ncnc(C)c3c2)cc1NS(=O)(=O)c1ccc(F)cc1F [Example 69, N-(5-(8-isopropoxy-4-methylquinazolin-6-yl)-2-methoxypyridin-3-yl)-2,4-difluorobenzenesulfonamide]	
1.9	1000	COc1ncc(-c2cc(OC(F)F)c3ncnc(C)c3c2)cc1NS(=O)(=O)c1ccc(F)cc1F [Example 71, N-(5-(8-(difluoromethoxy)-4-methylquinazolin-6-yl)-2-methoxypyridin-3-yl)-2,4-difluorobenzenesulfonamide]	
0.7	500	COc1ncc(-c2cc(OC)c3ncnc(C)c3c2)cc1NS(=O)(=O)c1ccc(F)cc1F [Example 72, N-(2-methoxy-5-(8-methoxy-4-methylquinazolin-6-yl)pyridin-3-yl)-2,4-difluorobenzenesulfonamide]	
1.3	740	Cc1ncnc2c(OC3CCOCC3)cc(-c3cnc(Cl)c(NS(=O)(=O)c4ccc(F)cc4)c3)cc12 [Example 73, N-(2-chloro-5-(4-methyl-8-((tetrahydro-2H-pyran-4-yl)oxy)quinazolin-6-yl)pyridin-3-yl)-4-fluorobenzenesulfonamide]	
1.1	870	Cc1ncc(-c2cc(OC3CCOCC3)c3ncnc(C)c3c2)cc1NS(=O)(=O)c1ccc(F)cc1F [Example 74, N-(2-methyl-5-(4-methyl-8-((tetrahydro-2H-pyran-4-yl)oxy)quinazolin-6-yl)pyridin-3-yl)-2,4-difluorobenzenesulfonamide]	

SMILES	IC50 (PI3Kα) [nM]	IC50 [1] [nM]	also measured
COc1ncc(-c2cc(OC3CCC3)c3ncnc(C)c3c2)cc1NS(=O)(=O)c1ccc(F)cc1F [Example 70, N-(5-(8-cyclobutoxy-4-methylquinazolin-6-yl)-2-methoxypyridin-3-yl)-2,4-difluorobenzenesulfonamide]	0.9	22	

Source: patent US11534443B2, “Quinazoline compounds, preparation method, use, and pharmaceutical composition thereof” (INSTITUTE OF MATERIA MEDICA, CHINESE ACADEMY OF MEDICAL …, priority 2016, dated 2022)
